Measurements published in ChEMBL document CHEMBL5579829, “Discovery of a potent CDKs/FLT3 PROTAC with enhanced differentiation and proliferation inhibition for AML” (Eur J Med Chem, 2024).
Calls of active or inactive are those of the source. The calls are words filed in the database; no cut-off is given here.

Experiments:
OCI-AML2 = assay: Antiproliferative activity against human OCI-AML2 cells measured after 1 to 3 days by CCK-8 assay; assay type: functional, cell-based
[1] = tested on: Protein cereblon/Receptor-type tyrosine-protein kinase FLT3 (Homo sapiens), P36888+Q96SW2 [UNDEFINED MUTATION]; assay: Protac activity at CRBN/FLT3-ITD mutant in human MV4-11 cells assessed as induction of FLT3 degradation at 2 nM measured after 3 days by Western blot analysis relative to control; assay type: cell-based; details: time 3.0 day
MV4-11 = assay: Antiproliferative activity against human MV4-11 cells measured after 1 to 3 days by CCK-8 assay; assay type: functional, cell-based
HL-60 [2] = assay: Induction of pro-differentiation of human HL-60 cells assessed as increase in CD11b expression at 6.25 nM measured after 3 days by immunostaining-based flow cytometry relative to control; assay type: functional; details: time 3 day
[3] = biological target: T1, Protein cereblon/Cyclin-dependent kinase 2 (Homo sapiens, UniProt P24941+Q96SW2); assay: Protac activity at CRBN/CDK2 in human HL-60 cells assessed as induction of CDK2 degradation measured after 3 days by Western blot analysis; assay type: cell-based
[4] = biological target: T1, Protein cereblon/Cyclin-dependent kinase 2; assay: Protac activity at CRBN/CDK2 in human HL-60 cells assessed as induction of CDK2 degradation measured after 24 hrs by Western blot analysis; assay type: cell-based
HL-60 [5] = assay: Induction of pro-differentiation of human HL-60 cells assessed as CD11b expression at 1 nM measured after 3 days by immunostaining-based flow cytometry (reference value: 8.32 to 10.55%); assay type: functional; details: time 3 day
[6] = biological target: T1, Protein cereblon/Cyclin-dependent kinase 2; assay: Protac activity at CRBN/CDK2 in human HL-60 cells assessed as induction of CDK2 degradation at 10 nM measured after 24 hrs in presence of proteasome inhibitor MG132 by Western blot analysis; assay type: cell-based
Kasumi 1 = assay: Antiproliferative activity against human Kasumi 1 cells measured after 1 to 3 days by CCK-8 assay; assay type: functional, cell-based
HL-60 [7] = assay: Induction of pro-differentiation of human HL-60 cells assessed as CD11b expression at 2 nM measured after 3 days by immunostaining-based flow cytometry (reference value: 8.32 to 10.55%); assay type: functional; details: time 3 day
MOLM-13 = assay: Antiproliferative activity against human MOLM-13 cells measured after 1 to 3 days by CCK-8 assay; assay type: functional, cell-based
[8] = biological target: Protein cereblon/Cyclin-dependent kinase 6 (Homo sapiens, UniProt Q00534+Q96SW2); assay: Protac activity at CRBN/CDK6 in human Kasumi 1 cells assessed as induction of CDK6 degradation at 2 to 32 nM measured after 3 days by Western blot analysis; assay type: cell-based; details: dose 2-32 nM, time 3.0 day
[9] = biological target: Protein cereblon/Cyclin-dependent kinase 1 (Homo sapiens) (UniProt P06493+Q96SW2); assay: Protac activity at CRBN/CDK1 in human MV4-11 cells assessed as induction of CDK1 degradation at 2 to 32 nM measured after 3 days by Western blot analysis; assay type: cell-based; details: dose 2-32 nM, time 3.0 day
[10] = tested on: Protein cereblon/Receptor-type tyrosine-protein kinase FLT3 (Homo sapiens), P36888+Q96SW2 [UNDEFINED MUTATION]; assay: Protac activity at CRBN/FLT3-ITD mutant in human THP-1 cells assessed as induction of FLT3 degradation at 4 to 64 nM measured after 3 days by Western blot analysis; assay type: cell-based; details: dose 4-64 nM, time 3.0 day
HL-60 [11] = assay: Induction of pro-differentiation of human HL-60 cells assessed as increase in CD11b expression at 6.25 nM measured after 3 days by immunostaining-based flow cytometry relative to 500 nM CPS2; assay type: functional; details: time 3 day
THP-1 = assay: Antiproliferative activity against human THP-1 cells measured after 1 to 3 days by CCK-8 assay; assay type: functional, cell-based
[12] = biological target: Protein cereblon/Receptor-type tyrosine-protein kinase FLT3 (Homo sapiens, UniProt P36888+Q96SW2); assay: Protac activity at CRBN/FLT3-ITD in human HL-60 cells assessed as induction of FLT3 degradation measured after 3 days by Western blot analysis; assay type: cell-based
HL-60 [13] = assay: Induction of pro-differentiation of human HL-60 cells assessed as increase in CD11b expression at 6.25 nM measured after 5 days by immunostaining-based flow cytometry relative to control; assay type: functional; details: time 5 day
[14] = biological target: T1, Protein cereblon/Cyclin-dependent kinase 2; assay: Protac activity at CRBN/CDK2 in human HL-60 cells assessed as induction of CDK2 degradation at 10 nM measured after 24 hrs in presence of CDK2 inhibitor FN-150 by Western blot analysis; assay type: cell-based
[15] = biological target: Protein cereblon/Cyclin-dependent kinase 5 (Homo sapiens) (UniProt Q00535+Q96SW2); assay: Protac activity at CRBN/CDK5 in human HL-60 cells assessed as induction of CDK5 degradation at 4 to 64 nM measured after 3 days by Western blot analysis; assay type: cell-based; details: dose 4-64 nM, time 3.0 day
[16] = biological target: T1, Protein cereblon/Cyclin-dependent kinase 2; assay: Protac activity at CRBN/CDK2 in human Kasumi 1 cells assessed as induction of CDK2 degradation at 2 to 32 nM measured after 3 days by Western blot analysis; assay type: cell-based; details: dose 2-32 nM, time 3.0 day
[17] = tested on: Protein cereblon/Receptor-type tyrosine-protein kinase FLT3 (Homo sapiens), P36888+Q96SW2 [UNDEFINED MUTATION]; assay: Protac activity at CRBN/FLT3-ITD mutant in human Kasumi 1 cells assessed as induction of FLT3 degradation at 2 to 32 nM measured after 3 days by Western blot analysis; assay type: cell-based; details: dose 2-32 nM, time 3.0 day

Protein cereblon/Receptor-type tyrosine-protein kinase FLT3 (Homo sapiens), P36888+Q96SW2 [UNDEFINED MUTATION], sequence (P36888 whole entry, looked up, stated change not applied): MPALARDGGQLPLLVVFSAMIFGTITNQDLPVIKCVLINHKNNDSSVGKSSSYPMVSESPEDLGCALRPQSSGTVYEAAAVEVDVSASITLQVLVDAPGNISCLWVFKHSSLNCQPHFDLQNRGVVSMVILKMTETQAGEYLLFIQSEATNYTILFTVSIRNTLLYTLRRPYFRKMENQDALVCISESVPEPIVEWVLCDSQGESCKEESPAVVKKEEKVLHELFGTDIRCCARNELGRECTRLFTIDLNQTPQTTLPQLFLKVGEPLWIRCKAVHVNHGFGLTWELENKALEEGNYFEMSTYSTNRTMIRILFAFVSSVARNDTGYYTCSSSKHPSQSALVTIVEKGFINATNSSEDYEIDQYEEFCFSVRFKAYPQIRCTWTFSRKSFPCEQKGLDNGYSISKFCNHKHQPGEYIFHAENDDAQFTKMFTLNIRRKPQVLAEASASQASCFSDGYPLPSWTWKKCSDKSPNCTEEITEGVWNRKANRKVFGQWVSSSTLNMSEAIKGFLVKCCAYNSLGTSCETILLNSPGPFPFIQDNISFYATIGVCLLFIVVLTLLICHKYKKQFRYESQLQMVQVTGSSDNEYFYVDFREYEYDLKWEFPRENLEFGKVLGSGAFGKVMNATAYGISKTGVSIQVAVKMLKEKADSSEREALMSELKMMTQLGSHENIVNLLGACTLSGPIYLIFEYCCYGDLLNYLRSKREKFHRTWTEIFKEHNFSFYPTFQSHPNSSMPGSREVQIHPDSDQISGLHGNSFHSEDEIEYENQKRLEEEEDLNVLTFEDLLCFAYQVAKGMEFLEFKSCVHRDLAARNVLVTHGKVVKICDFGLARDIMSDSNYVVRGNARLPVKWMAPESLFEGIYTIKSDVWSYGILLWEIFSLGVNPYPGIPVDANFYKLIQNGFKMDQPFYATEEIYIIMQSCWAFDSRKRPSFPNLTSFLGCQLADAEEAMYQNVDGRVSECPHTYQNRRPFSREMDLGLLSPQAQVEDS
Protein cereblon/Receptor-type tyrosine-protein kinase FLT3 (Homo sapiens), P36888+Q96SW2 [UNDEFINED MUTATION], sequence (Q96SW2 whole entry, looked up, stated change not applied): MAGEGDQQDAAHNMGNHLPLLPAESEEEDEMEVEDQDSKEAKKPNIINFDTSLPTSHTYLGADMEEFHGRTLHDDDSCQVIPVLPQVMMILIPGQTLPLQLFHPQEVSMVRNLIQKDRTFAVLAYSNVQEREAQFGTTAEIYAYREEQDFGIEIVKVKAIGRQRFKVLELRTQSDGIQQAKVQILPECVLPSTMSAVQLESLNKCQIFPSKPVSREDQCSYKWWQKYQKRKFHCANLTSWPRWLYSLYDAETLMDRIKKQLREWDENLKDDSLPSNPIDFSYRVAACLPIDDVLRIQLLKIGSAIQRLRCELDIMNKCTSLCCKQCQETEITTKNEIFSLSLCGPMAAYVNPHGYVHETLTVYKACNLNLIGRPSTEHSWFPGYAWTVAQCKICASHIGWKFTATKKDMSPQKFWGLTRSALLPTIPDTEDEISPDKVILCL
Protein cereblon/Cyclin-dependent kinase 6, sequence (Q00534 whole entry, looked up): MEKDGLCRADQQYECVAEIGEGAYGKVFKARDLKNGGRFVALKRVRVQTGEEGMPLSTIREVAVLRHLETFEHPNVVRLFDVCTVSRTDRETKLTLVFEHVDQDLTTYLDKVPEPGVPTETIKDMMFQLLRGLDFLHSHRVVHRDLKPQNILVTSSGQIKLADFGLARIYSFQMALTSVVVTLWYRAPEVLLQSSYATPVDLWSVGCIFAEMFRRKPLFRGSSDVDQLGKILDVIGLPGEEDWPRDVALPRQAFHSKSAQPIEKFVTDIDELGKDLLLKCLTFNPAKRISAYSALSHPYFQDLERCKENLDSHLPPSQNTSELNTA
Protein cereblon/Cyclin-dependent kinase 6, sequence (Q96SW2 whole entry, looked up): as the sequence (Q96SW2 whole entry, looked up, stated change not applied) above
Protein cereblon/Cyclin-dependent kinase 5 (Homo sapiens), sequence (Q00535 whole entry, looked up): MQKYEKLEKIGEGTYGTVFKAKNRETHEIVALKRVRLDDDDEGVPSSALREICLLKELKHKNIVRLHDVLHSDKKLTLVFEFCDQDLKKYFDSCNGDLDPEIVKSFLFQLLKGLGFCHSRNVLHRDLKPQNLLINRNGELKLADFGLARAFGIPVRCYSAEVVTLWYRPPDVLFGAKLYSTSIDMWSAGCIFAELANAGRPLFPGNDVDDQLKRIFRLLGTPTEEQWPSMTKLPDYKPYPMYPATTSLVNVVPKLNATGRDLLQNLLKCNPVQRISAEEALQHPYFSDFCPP
Protein cereblon/Cyclin-dependent kinase 5 (Homo sapiens), sequence (Q96SW2 whole entry, looked up): as the sequence (Q96SW2 whole entry, looked up, stated change not applied) above
Protein cereblon/Receptor-type tyrosine-protein kinase FLT3, sequence (P36888 whole entry, looked up, change not shown): as the sequence (P36888 whole entry, looked up, stated change not applied) above
Protein cereblon/Receptor-type tyrosine-protein kinase FLT3, sequence (Q96SW2 whole entry, looked up, change not shown): as the sequence (Q96SW2 whole entry, looked up, stated change not applied) above
Protein cereblon/Cyclin-dependent kinase 1 (Homo sapiens), sequence (P06493 whole entry, looked up): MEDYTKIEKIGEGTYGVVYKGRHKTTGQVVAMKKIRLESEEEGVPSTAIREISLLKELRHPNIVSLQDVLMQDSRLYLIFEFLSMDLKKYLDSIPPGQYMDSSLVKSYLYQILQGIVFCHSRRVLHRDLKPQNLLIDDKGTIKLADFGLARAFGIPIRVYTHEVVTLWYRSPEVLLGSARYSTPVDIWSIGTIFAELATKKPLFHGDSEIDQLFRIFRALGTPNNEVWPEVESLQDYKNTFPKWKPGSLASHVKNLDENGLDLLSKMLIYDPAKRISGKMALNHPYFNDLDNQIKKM
Protein cereblon/Cyclin-dependent kinase 1 (Homo sapiens), sequence (Q96SW2 whole entry, looked up): as the sequence (Q96SW2 whole entry, looked up, stated change not applied) above

O=C1CCC(N2C(=O)c3ccc(N4CCC(CN5CCN(Cc6ccc(NC(=O)c7n[nH]cc7Nc7ncnc8[nH]ccc78)cc6)CC5)CC4)cc3C2=O)C(=O)N1 (configuration not stated)
IC50 (OCI-AML2): 17.9 nM
Activity [1]: 77%
IC50 (MV4-11): 2.9 nM
fold change (FC) (HL-60 [2]): 5.7
DC50 [3]: 4.74 nM
DC50 [4]: 18.7 nM
Activity (HL-60 [5]): 23.74%
Activity [6]: inactive
IC50 (Kasumi 1): 3.99 nM
Activity (HL-60 [7]): 29.09%
IC50 (MOLM-13): 4.52 nM
Activity [8]: Active
Activity [9]: inactive
Activity [10]: Active
fold change (FC) (HL-60 [11]): 2.2
IC50 (THP-1): 37.1 nM
DC50 [12]: 5.69 nM
fold change (FC) (HL-60 [13]): 7.2
Activity [14]: inactive
Activity [15]: inactive
Activity [16]: Active
Activity [17]: Active
